Measured values reported in patent publication US20110034335A1, “Treatment of Ornamental Plants” (priority 2009, published 2011).

Tests used:
Assay type in all cases: in vivo
[1] = system: Geranium; test: Shelf life after low-concentration spray (Example 9); settings: EthylBloc powder in distilled water
Excerpt: (§1) Spray liquid was EthylBloc™ powder (contains 0.14% by weight 1-MCP, plus alpha-cyclodextrin and dextrose, obtained from Floralife Inc.) in distilled water. The shelf lives of sprayed and non-sprayed control plants were observed, with the following results: […]

[2] = system: Impatiens; test: as above; settings: EthylBloc powder in distilled water
Excerpt: as §1

[3] = system: New Guinea Impatiens; test: as above; settings: EthylBloc powder in distilled water
Excerpt: as §1

[4] = system: ‘Hark’ Phalaenopsis orchids; test: Spray with 1-MCP solutions with or without Silwet L-77, ethylene challenge (Example 7)
Method: (§2) Spray applications were made using (unless otherwise noted) AFxRD-038 powder containing 3.8% active ingredient, i.e. 1-MCP, and also containing dextrose, alpha-cyclodextrin, and amino acid salt. Rates listed are for active ingredient e.g. 5 mg active ingredient per liter. Sprayed liquid contained (unless otherwise noted) AFxRD-038 powder added to water. AFxRD-038 powder was obtained from AgroFresh Inc. The water used (unless otherwise noted) was tap water. Applications were done in 500 ml spray bottles at rates typical for growth regulators applications in the ornamental industry i.e., 200 ml per square meter. Spraying was done within 5-15 minutes of mixing the formulation. Plants were allowed to dry for 1-4 hours before being challenged with ethylene (2 ppm for about 16 hours at ambient temperatures).
(§3) Surfactant Silwet™ L-77 (called “surf” below) was sometimes included to evaluate the effect of surfactant on efficacy. Silwet™ L-77 was used in the form of a pure liquid. The amounts shown below as “ml/L” refer to milliliters of pure Silwet™ L-77 per liter of liquid CP composition.
Percent of plants showing one or more of flower wilting, bud wilting, and drop on ‘Hark’ Phalaenopsis orchids (in pots) sprayed with 1-MCP solutions with or without Silwet™ L-77 surfactant and challenged with ethylene.

[5] = system: Impatiens (light pink); test: Racks of flowering plants sprayed, truck 14 hours, ethylene challenge (Example 8); settings: 25 mg/L, 200 ml/square meter, scale 0 (poor) to 2 (good)
Method: as §2
(§4) Racks of flowers were sprayed with spray liquid containing 25 mg/L at rate of 200 ml/square meter. Racks were then placed into a full enclosed truck (length 7.3 meter) for 14 hours. Plants were then challenged with ethylene and evaluated 3 and 7 days later, using a rating scale from 0 (poor) to 2 (good). […]

[6] = system: Impatiens (dark pink); test: as above; settings: 25 mg/L, 200 ml/square meter, scale 0 (poor) to 2 (good)
Method: as §2, §4

[7] = system: Verbena “babylon Red”; test: as above; settings: 25 mg/L, 200 ml/square meter, scale 0 (poor) to 2 (good)
Method: as §2, §4

[8] = system: Impatiens (double pink); test: as above; settings: 25 mg/L, 200 ml/square meter, scale 0 (poor) to 2 (good)
Method: as §2, §4

[9] = system: Dianthus (mixed); test: as above; settings: 25 mg/L, 200 ml/square meter, scale 0 (poor) to 2 (good)
Method: as §2, §4

[10] = system: Callibrachoa “Cherry Blossom”; test: as above; settings: 25 mg/L, 200 ml/square meter, scale 0 (poor) to 2 (good)
Method: as §2, §4

[11] = system: Dianthus “Ideal White”; test: as above; settings: 25 mg/L, 200 ml/square meter, scale 0 (poor) to 2 (good)
Method: as §2, §4

[12] = system: Snapdragon (yellow); test: as above; settings: 25 mg/L, 200 ml/square meter, scale 0 (poor) to 2 (good)
Method: as §2, §4

[13] = system: Petunia “Royal Velvet”; test: as above; settings: 25 mg/L, 200 ml/square meter, scale 0 (poor) to 2 (good)
Method: as §2, §4

[14] = system: Kalanchoe; test: Spray with 1-MCP solutions with or without Silwet L-77, ethylene challenge (Example 2)
Method: as §2, §3
(§5) Kalanchoe (unknown cultivar), ‘Candy Stripe’ phlox and ‘Sonnet’ snapdragon (all in pots of diameter 10 cm (4 inch)) were sprayed with 1-MCP solutions, with or without Silwet™ L-77 surfactant (specific gravity 1.007), and challenged with ethylene.
(§6) For Kanlanchoe, we observed the percent of plants on which one or more flowers died by wilting, whether or not it stayed on the plant. For Phlox and Snapdragon, we observed the percent of plants on which one or more flowers or one or more buds underwent abscission.

[15] = system: ‘Candy Stripe’ phlox; test: as above; settings: for Bud or Flower Abscission (%): Day 5
Method: as §2, §3, §5, §6

[16] = system: ‘Sonnet’ snapdragon; test: as above; settings: for Bud or Flower Abscission (%): Day 5
Method: as §2, §3, §5, §6

[17] = 1-MCP 5 mg/L, surf 0 ml/L, Day 5
[18] = 1-MCP 5 mg/L, surf 0 ml/L, Day 15
[19] = 1-MCP 10 mg/L, surf 0 ml/L, Day 5
[20] = 1-MCP 10 mg/L, surf 0 ml/L, Day 15
[21] = 1-MCP 25 mg/L, surf 0 ml/L, Day 5
[22] = 1-MCP 25 mg/L, surf 0 ml/L, Day 15
[23] = 1-MCP 50 mg/L, surf 0 ml/L, Day 5
[24] = 1-MCP 50 mg/L, surf 0 ml/L, Day 15
[25] = 1-MCP 50 mg/L, surf 0.25 ml/L, Day 5
[26] = 1-MCP 50 mg/L, surf 0.25 ml/L, Day 15

CC1=CC1 [1-MCP, 1-methylcyclopropene]
Shelf Life ([1]; 1-MCP 0.03 mg/L): 3 days | Shelf Life ([1]; 1-MCP 0.32 mg/L): 4 days | Shelf Life ([2]; 1-MCP 0.03 mg/L): 3 days | Shelf Life ([2]; 1-MCP 0.32 mg/L): 5 days | Shelf Life ([3]; 1-MCP 0.03 mg/L): 4 days | Shelf Life ([3]; 1-MCP 0.32 mg/L): 7 days | flower wilt, bud wilt, and/or drop (%) ([4]; 1-MCP 5 mg/L, surf 0 ml/L, Day 0): 0 a % | flower wilt, bud wilt, and/or drop (%) [4, 17]: 1.8% | flower wilt, bud wilt, and/or drop (%) ([4]; 1-MCP 5 mg/L, surf 0 ml/L, Day 10): 1.8% | flower wilt, bud wilt, and/or drop (%) [4, 18]: 1.8% | flower wilt, bud wilt, and/or drop (%) ([4]; 1-MCP 10 mg/L, surf 0 ml/L, Day 0): 0 a % | flower wilt, bud wilt, and/or drop (%) [4, 19]: 2.9% | flower wilt, bud wilt, and/or drop (%) ([4]; 1-MCP 10 mg/L, surf 0 ml/L, Day 10): 2.9% | flower wilt, bud wilt, and/or drop (%) [4, 20]: 2.9% | flower wilt, bud wilt, and/or drop (%) ([4]; 1-MCP 25 mg/L, surf 0 ml/L, Day 0): 0 a % | flower wilt, bud wilt, and/or drop (%) [4, 21]: 0% | flower wilt, bud wilt, and/or drop (%) ([4]; 1-MCP 25 mg/L, surf 0 ml/L, Day 10): 0% | flower wilt, bud wilt, and/or drop (%) [4, 22]: 0% | flower wilt, bud wilt, and/or drop (%) ([4]; 1-MCP 50 mg/L, surf 0 ml/L, Day 0): 0 a % | flower wilt, bud wilt, and/or drop (%) [4, 23]: 1.8% | flower wilt, bud wilt, and/or drop (%) ([4]; 1-MCP 50 mg/L, surf 0 ml/L, Day 10): 1.8% | flower wilt, bud wilt, and/or drop (%) [4, 24]: 1.8% | flower wilt, bud wilt, and/or drop (%) ([4]; 1-MCP 50 mg/L, surf 0.25 ml/L, Day 0): 0 a % | flower wilt, bud wilt, and/or drop (%) [4, 25]: 0% | flower wilt, bud wilt, and/or drop (%) ([4]; 1-MCP 50 mg/L, surf 0.25 ml/L, Day 10): 0% | flower wilt, bud wilt, and/or drop (%) [4, 26]: 0% | rating, Sprayed ([5]; Day 3): 1.00 a | rating, Sprayed ([5]; Day 7): 1.00 a | rating, Sprayed ([6]; Day 3): 1.00 a | rating, Sprayed ([6]; Day 7): 0.83 a | rating, Sprayed ([7]; Day 3): 0.58 a | rating, Sprayed ([7]; Day 7): 0.19 a | rating, Sprayed ([8]; Day 3): 1.00 a | rating, Sprayed ([8]; Day 7): 0.58 a | rating, Sprayed ([9]; Day 3): 0.58 a | rating, Sprayed ([9]; Day 7): 0.25 a | rating, Sprayed ([10]; Day 3): 1.00 a | rating, Sprayed ([10]; Day 7): 1.00 a | rating, Sprayed ([11]; Day 3): 0.92 a | rating, Sprayed ([11]; Day 7): 1.00 a | rating, Sprayed ([12]; Day 3): 0.83 a | rating, Sprayed ([12]; Day 7): 0.58 a | rating, Sprayed ([13]; Day 3): 1.00 a | rating, Sprayed ([13]; Day 7): 0.38 a | protection against ethylene ([14]; 1-MCP 5 mg/L): sufficient in giving protection against ethylene | Flower Wilting (%) [14, 17]: 7.9% | Flower Wilting (%) [14, 18]: 11.9% | Flower Wilting (%) ([14]; 1-MCP 5 mg/L, surf 0.25 ml/L, Day 5): 7.3% | Flower Wilting (%) ([14]; 1-MCP 5 mg/L, surf 0.25 ml/L, Day 15): 8.7% | Flower Wilting (%) [14, 19]: 5.6% | Flower Wilting (%) [14, 20]: 6.7% | Flower Wilting (%) ([14]; 1-MCP 10 mg/L, surf 0.25 ml/L, Day 5): 5.5% | Flower Wilting (%) ([14]; 1-MCP 10 mg/L, surf 0.25 ml/L, Day 15): 6.8% | Flower Wilting (%) [14, 21]: 4.6% | Flower Wilting (%) [14, 22]: 7.2% | Flower Wilting (%) ([14]; 1-MCP 25 mg/L, surf 0.25 ml/L, Day 5): 6.2% | Flower Wilting (%) ([14]; 1-MCP 25 mg/L, surf 0.25 ml/L, Day 15): 7.4% | phytotoxicity ([14]; 1-MCP 50 mg/L): did not result in any phytotoxicity | Flower Wilting (%) [14, 23]: 6.7% | Flower Wilting (%) [14, 24]: 7.5% | Flower Wilting (%) [14, 25]: 5.7% | Flower Wilting (%) [14, 26]: 6.7% | protection against ethylene ([15]; 1-MCP 5 mg/L): sufficient in giving protection against ethylene | Bud or Flower Abscission (%) ([15]; 1-MCP 5 mg/L, surf 0 ml/L): 21.4% | Bud or Flower Abscission (%) ([15]; 1-MCP 5 mg/L, surf 0.25 ml/L): 26.0% | Bud or Flower Abscission (%) ([15]; 1-MCP 10 mg/L, surf 0 ml/L): 17.3% | Bud or Flower Abscission (%) ([15]; 1-MCP 10 mg/L, surf 0.25 ml/L): 22.8% | Bud or Flower Abscission (%) ([15]; 1-MCP 25 mg/L, surf 0 ml/L): 15.8% | Bud or Flower Abscission (%) ([15]; 1-MCP 25 mg/L, surf 0.25 ml/L): 21.2% | Bud or Flower Abscission (%) ([15]; 1-MCP 50 mg/L, surf 0 ml/L): 44.1% | Bud or Flower Abscission (%) ([15]; 1-MCP 50 mg/L, surf 0.25 ml/L): 40.0% | phytotoxicity to the open florets ([15]; the highest rates of 1-MCP): caused phytotoxicity to the open florets | protection against ethylene ([16]; 1-MCP 5 mg/L): sufficient in giving protection against ethylene | Bud or Flower Abscission (%) ([16]; 1-MCP 5 mg/L, surf 0 ml/L): 19.9% | Bud or Flower Abscission (%) ([16]; 1-MCP 5 mg/L, surf 0.25 ml/L): 0.0% | Bud or Flower Abscission (%) ([16]; 1-MCP 10 mg/L, surf 0 ml/L): 4.4% | Bud or Flower Abscission (%) ([16]; 1-MCP 10 mg/L, surf 0.25 ml/L): 3.3% | Bud or Flower Abscission (%) ([16]; 1-MCP 25 mg/L, surf 0 ml/L): 7.4% | Bud or Flower Abscission (%) ([16]; 1-MCP 25 mg/L, surf 0.25 ml/L): 3.3% | phytotoxicity on flowers ([16]; 1-MCP 50 mg/L): did not result in any phytotoxicity | Bud or Flower Abscission (%) ([16]; 1-MCP 50 mg/L, surf 0 ml/L): 6.4% | Bud or Flower Abscission (%) ([16]; 1-MCP 50 mg/L, surf 0.25 ml/L): 8.9% | phytotoxicity to the open florets ([16]; the highest rates of 1-MCP): caused phytotoxicity to the open florets
